Assay results: PubChem BioAssay AID1259407 (Chemical Carcinogenesis Research Information System (CCRIS), 2018)
The source made the active and inactive calls. How the calls were made is not given here.

System: CCRIS mutagenicity, Ames/micronucleus/aberration tests
Assay: CCRIS mutagenicity studies
[1] = Test System: AMES SALMONELLA TYPHIMURIUM, Strain/Indicator: TA98, Metabolic Activation: NONE, Method: PREINCUBATION
[2] = Test System: AMES SALMONELLA TYPHIMURIUM, Strain/Indicator: TA100, Metabolic Activation: RAT, LIVER, S-9, AROCLOR 1254, Method: STANDARD PLATE

Structure (SMILES): CNc1ccc(O)cc1
- mutagenic call (Test System: AMES SALMONELLA TYPHIMURIUM, Strain/Indicator: TA97, Metabolic Activation: HAMSTER, LIVER, AROCLOR 1254 (10%), Method: PREINCUBATION): inactive; negative
- mutagenic call (Test System: AMES SALMONELLA TYPHIMURIUM, Strain/Indicator: TA97, Metabolic Activation: NONE, Method: PREINCUBATION): inactive; negative
- mutagenic call (Test System: AMES SALMONELLA TYPHIMURIUM, Strain/Indicator: TA97, Metabolic Activation: RAT, LIVER, S-9, AROCLOR 1254 (10%), Method: PREINCUBATION): active; positive
- mutagenic call (Test System: AMES SALMONELLA TYPHIMURIUM, Strain/Indicator: TA98, Metabolic Activation: HAMSTER, LIVER, S-9, AROCLOR 1254 (10%), Method: PREINCUBATION): inactive; negative
- mutagenic call [1]: inactive; negative
- mutagenic call (Test System: AMES SALMONELLA TYPHIMURIUM, Strain/Indicator: TA98, Metabolic Activation: RAT, LIVER, S-9, AROCLOR 1254 (10%), Method: PREINCUBATION): inactive; negative
- mutagenic call (Test System: AMES SALMONELLA TYPHIMURIUM, Strain/Indicator: TA100, Metabolic Activation: NONE, Method: PREINCUBATION): inactive; negative
- mutagenic call (Test System: AMES SALMONELLA TYPHIMURIUM, Strain/Indicator: TA100, Metabolic Activation: RAT, LIVER, S-9, AROCLOR 1254 (10%), Method: PREINCUBATION): inactive; negative
- mutagenic call (Test System: AMES SALMONELLA TYPHIMURIUM, Strain/Indicator: TA1535, Metabolic Activation: HAMSTER, LIVER, S-9, AROCLOR 1254 (10%), Method: PREINCUBATION): inactive; negative
- mutagenic call (Test System: AMES SALMONELLA TYPHIMURIUM, Strain/Indicator: TA1535, Metabolic Activation: NONE, Method: PREINCUBATION): inactive; negative
- mutagenic call (Test System: AMES SALMONELLA TYPHIMURIUM, Strain/Indicator: TA1535, Metabolic Activation: RAT, LIVER, S-9, AROCLOR 1254 (10%), Method: PREINCUBATION): inactive; negative
- mutagenic call (Test System: AMES SALMONELLA TYPHIMURIUM, Strain/Indicator: TA1537, Metabolic Activation: HAMSTER, LIVER, S-9, AROCLOR 1254 (10%), Method: PREINCUBATION): active; positive
- mutagenic call (Test System: AMES SALMONELLA TYPHIMURIUM, Strain/Indicator: TA1537, Metabolic Activation: NONE, Method: PREINCUBATION): inactive; negative
- mutagenic call (Test System: AMES SALMONELLA TYPHIMURIUM, Strain/Indicator: TA1537, Metabolic Activation: RAT, LIVER, S-9, AROCLOR 1254 (10%), Method: PREINCUBATION): active; positive

Structure (SMILES): CO[C@@]1(NC(=O)CSC[C@@H](N)C(=O)O)C(=O)N2C(C(=O)O)=C(CSc3nnnn3C)CS[C@@H]21
- mutagenic call (Test System: AMES SALMONELLA TYPHIMURIUM, Strain/Indicator: TA98, Metabolic Activation: NONE): inactive; negative
- mutagenic call (Test System: AMES SALMONELLA TYPHIMURIUM, Strain/Indicator: TA98, Metabolic Activation: S-9): inactive; negative
- mutagenic call (Test System: AMES SALMONELLA TYPHIMURIUM, Strain/Indicator: TA100, Metabolic Activation: NONE): inactive; negative
- mutagenic call (Test System: AMES SALMONELLA TYPHIMURIUM, Strain/Indicator: TA100, Metabolic Activation: S-9): inactive; negative
- mutagenic call (Test System: AMES SALMONELLA TYPHIMURIUM, Strain/Indicator: TA1535, Metabolic Activation: NONE): inactive; negative
- mutagenic call (Test System: AMES SALMONELLA TYPHIMURIUM, Strain/Indicator: TA1535, Metabolic Activation: S-9): inactive; negative
- mutagenic call (Test System: AMES SALMONELLA TYPHIMURIUM, Strain/Indicator: TA1537, Metabolic Activation: NONE): inactive; negative
- mutagenic call (Test System: AMES SALMONELLA TYPHIMURIUM, Strain/Indicator: TA1537, Metabolic Activation: S-9): inactive; negative
- mutagenic call (Test System: AMES SALMONELLA TYPHIMURIUM, Strain/Indicator: TA1538, Metabolic Activation: NONE): inactive; negative
- mutagenic call (Test System: AMES SALMONELLA TYPHIMURIUM, Strain/Indicator: TA1538, Metabolic Activation: S-9): inactive; negative
- mutagenic call (Test System: E. COLI, Strain/Indicator: WP2 UVRA, Metabolic Activation: NONE): inactive; negative
- mutagenic call (Test System: E. COLI, Strain/Indicator: WP2 UVRA, Metabolic Activation: S-9): inactive; negative

Structure (SMILES): O=[N+]([O-])C1c2ccccc2-c2ccccc21
- mutagenic call (End Point: IN VITRO CHROMOSOMAL ABERRATIONS, Test System: CHINESE HAMSTER LUNG (CHL) CELLS, Metabolic Activation: NONE): active; positive
- mutagenic call (End Point: IN VITRO CHROMOSOMAL ABERRATIONS, Test System: CHINESE HAMSTER LUNG (CHL) CELLS, Metabolic Activation: NONE, Method: FISH): active; positive
- mutagenic call (End Point: IN VITRO CHROMOSOMAL ABERRATIONS, Test System: CHINESE HAMSTER LUNG (CHL) CELLS, Metabolic Activation: RAT, LIVER, S-9, KC-400): active; positive
- mutagenic call (Test System: E. COLI, Strain/Indicator: WP2 UVRA, Metabolic Activation: NONE, Method: FLUCTUATION): active; positive

Structure (SMILES): CCOCC1CO1 (centres undefined)
- mutagenic call (Test System: AMES SALMONELLA TYPHIMURIUM, Strain/Indicator: TA100, Metabolic Activation: NONE, Method: STANDARD PLATE): active; positive
- mutagenic call [2]: active; positive
- mutagenic call (Test System: AMES SALMONELLA TYPHIMURIUM, Strain/Indicator: TA1535, Metabolic Activation: NONE, Method: STANDARD PLATE): active; positive
- mutagenic call (Test System: AMES SALMONELLA TYPHIMURIUM, Strain/Indicator: TA1535, Metabolic Activation: RAT, LIVER, S-9, AROCLOR 1254, Method: STANDARD PLATE): active; positive

Structure (SMILES): C=CCSS(=O)CC=C (centres undefined)
- mutagenic call (End Point: IN VITRO CHROMOSOMAL ABERRATIONS, Test System: HUMAN PERIPHERAL BLOOD LYMPHOCYTES, Metabolic Activation: NONE): inactive; negative
- mutagenic call (End Point: IN VITRO CHROMOSOMAL ABERRATIONS, Test System: HUMAN PERIPHERAL BLOOD LYMPHOCYTES, Metabolic Activation: RAT, LIVER, S-9, PHENOBARBITONE): inactive; negative

Structure (SMILES): CC(=O)N[C@@H](CC(=O)O)C(=O)O
- mutagenic call (End Point: In vivo micronucleus, Test System: Bone marrow erythrocytes, Species: Mouse, Strain/Sex: Crl:CD1 (ICR)/Male and female, Route: Oral): inactive; negative
- mutagenic call (Test System: Ames Salmonella typhimurium, Strain/Indicator: TA98, Metabolic Activation: None, Method: Standard plate): inactive; negative
- mutagenic call (Test System: Ames Salmonella typhimurium, Strain/Indicator: TA98, Metabolic Activation: Rat, Liver, S-9, Aroclor 1254 (10%), Method: Standard plate): inactive; negative
- mutagenic call (Test System: Ames Salmonella typhimurium, Strain/Indicator: TA100, Metabolic Activation: None, Method: Standard plate): inactive; negative
- mutagenic call (Test System: Ames Salmonella typhimurium, Strain/Indicator: TA100, Metabolic Activation: Rat, Liver, S-9, Aroclor 1254 (10%), Method: Standard plate): inactive; negative
- mutagenic call (Test System: Ames Salmonella typhimurium, Strain/Indicator: TA1535, Metabolic Activation: None, Method: Standard plate): inactive; negative
- mutagenic call (Test System: Ames Salmonella typhimurium, Strain/Indicator: TA1535, Metabolic Activation: Rat, Liver, S-9, Aroclor 1254 (10%), Method: Standard plate): inactive; negative
- mutagenic call (Test System: Ames Salmonella typhimurium, Strain/Indicator: TA1537, Metabolic Activation: None, Method: Standard plate): inactive; negative
- mutagenic call (Test System: Ames Salmonella typhimurium, Strain/Indicator: TA1537, Metabolic Activation: Rat, Liver, S-9, Aroclor 1254 (10%), Method: Standard plate): inactive; negative
- mutagenic call (Test System: E. coli, Strain/Indicator: WP2 uvrA, Metabolic Activation: None, Method: Standard plate): inactive; negative
- mutagenic call (Test System: E. coli, Strain/Indicator: WP2 uvrA, Metabolic Activation: Rat, Liver, S-9, Aroclor 1254 (10%), Method: Standard plate): inactive; negative

Structure (SMILES): Cc1ccc2c3c1ccc1cccc(c13)C2
- mutagenic call [2]: active; positive

Structure (SMILES): CCc1c2ccccc2cc2c1c1c(c3ccccc32)O1
- mutagenic call [1]: active; positive

Structure (SMILES): Cc1c2c(cc3c1ccc1ccccc13)C=C[C@@H](O)[C@@H]2O
- mutagenic call (Test System: CHINESE HAMSTER V-79, Strain/Indicator: V-79/8-AZAGUANINE, Metabolic Activation: NONE, Method: STANDARD PLATE): active; positive

Structure (SMILES): Cc1cc(-c2ccccc2C)ccc1N
- mutagenic call (Test System: AMES SALMONELLA TYPHIMURIUM, Strain/Indicator: TA98, Metabolic Activation: RAT, LIVER, S-9, AROCLOR 1254, Method: STANDARD PLATE): active; positive
- mutagenic call [2]: active; positive
- mutagenic call (Test System: AMES SALMONELLA TYPHIMURIUM, Strain/Indicator: TA1538, Metabolic Activation: RAT, LIVER, S-9, AROCLOR 1254, Method: STANDARD PLATE): active; positive
- mutagenic call (Test System: UDS RODENT HEPATOCYTES, Strain/Indicator: THY INCORP (NON-S-PHASE), Method: AUTORADIOGRAPHY): active; positive
